# In article PMC11330772, “Unveiling the kinetic versatility of aryl-alcohol oxidases with different electron acceptors” (Frontiers in Bioengineering and Biotechnology, 2024):
# Read-outs that look alike come from different tables or passages of the source.
# B1: BaAAO (Bjerkandera adusta) (protein)
# chain: MVTFFTDASQLPATVYDFIVVGAGNAGNVVAARLTEDWKTTVLLIEAGISHEGIDSVAVPGLVLDNLPFSPVMWNYTTVPQAALDNRPIPYAKGRVVGGSSSVNFMEYTRSSNTEYDRWANLTGDAGWSWKNMEQYYLKNSRLVPPQDGHNTTGDVDPSVHGYGPVPLSLVGTPNPLDARMRAATQAPGAEFPFQLDMNGGDMIGFGIVQSTILNGERMHSGKAFLEPAMSRPNLHVLIENTVTRLIQTKTTNGLPSFMKVEFARDALSARSVVTATKEVVLSAGSIGTPQILMLSGIGDREELTAIGVNVTVDNPAVGKHLKDHPIMANYFQVNSNETYDDIFRDRDVSNTFLAQWKQNRTGPMVASPSTGLGFFRLPDNDTIFERFADPSPGEGAGHIELILSNQWTPEVQIPPATGSFLTVHAVVVSPASEGTVRLNSTNPFEFPLLDPQLLSSEFDQHTIIHAARLARQFVSSSPWADFVESRTGIIGDTDDDEADLLAAARQATVTIWHPMCTARMAPKGSTDGAIDPDLLVKGVSGLRVIDGAALPAIPATHPMAAIYLLAERGSDLIKQKWKL
# B2: PeAAO (Pleurotus eryngii) (protein)
# chain: ADFDYVVVGAGNAGNVVAARLTEDPDVSVLVLEAGVSDENVLGAEAPLLAPGLVPNSIFDWNYTTTAQAGYNGRSIAYPRGRMLGGSSSVHYMVMMRGSTEDFDRYAAVTGDEGWNWDNIQQFVRKNEMVVPPADNHNTSGEFIPAVHGTNGSVSISLPGFPTPLDDRVLATTQEQSEEFFFNPDMGTGHPLGISWSIASVGNGQRSSSSTAYLRPAQSRPNLSVLINAQVTKLVNSGTTNGLPAFRCVEYAEQEGAPTTTVCAKKEVVLSAGSVGTPILLQLSGIGDENDLSSVGIDTIVNNPSVGRNLSDHLLLPAAFFVNSNQTFDNIFRDSSEFNVDLDQWTNTRTGPLTALIANHLAWLRLPSNSSIFQTFPDPAAGPNSAHWETIFSNQWFHPAIPRPDTGSFMSVTNALISPVARGDIKLATSNPFDKPLINPQYLSTEFDIFTMIQAVKSNLRFLSGQAWADFVIRPFDPRLRDPTDDAAIESYIRDNANTIFHPVGTASMSPRGASWGVVDPDLKVKGVDGLRIVDGSILPFAPNAHTQGPIYLVGKQGADLIKADQ
# Key:
# BaAAO [1] = biological target: T1, BaAAO (Bjerkandera adusta, UniProt A0ABF7PQ87); assay: Steady-state bi-substrate kinetics of alcohol oxidation; type: biochemical
# Experimental: (§1) Bi-substrate kinetics were analyzed by concurrently varying the concentration of the aforementioned alcohols and electron acceptors. Oxygen assays were carried out in a screw-cap cuvette where the alcohol was equilibrated with the desired concentration of O2 by bubbling with the appropriate O2/N2 gas mixture (4%, 10%, 21%, 44%, and 100% O2) for 10 min. Alcohol oxidation was initiated by the addition of the enzyme and followed at 285 nm for 4-methoxybenzaldehyde production and 295 nm in the case of 3-Cl-4-methoxybenzaldehyde (Δε285 = 16,950 M^−1cm^−1 and Δε295 = 15,000 M^−1cm^−1, respectively) ([Ferreira et al., 2005]). […]. BQ solutions were prepared immediately prior to use and protected from the light to avoid photodegradation.
# (§2) The initial rates for bi-substrate kinetics were fitted to Eq. 1 or Eq. 2, which describe sequential and ping-pong kinetic mechanisms, respectively. […]
# PeAAO [2] = biological target: T2, PeAAO (Pleurotus eryngii, UniProt O94219); assay: as above; type: biochemical
# Experimental: as §1, §2
# BaAAO [3] = biological target: T1, BaAAO; assay: Stopped-flow reductive half-reaction (flavin reduction by alcohol); type: biochemical; details: anaerobic, 50 mM sodium phosphate, pH 6.0, 25 °C
# Experimental: (§3) Studies on the reductive half-reaction were performed by mixing AAO (∼10 μM, final concentration) with increasing concentrations of alcohols under anaerobic conditions. Observed rate constants (k obs) were calculated using global analysis and numerical integration methods, simultaneously utilizing all spectral data in the 400–800 nm region along time evolution using the ProKineticist software from Applied Photophysics.
# PeAAO [4] = biological target: T2, PeAAO; assay: as above; type: biochemical
# Experimental: as §3
# BaAAO [5] = biological target: T1, BaAAO; assay: Redox state of the enzyme during turnover (stopped-flow); type: biochemical; details: in the presence of O2 (air), saturating alcohol, pH 6.0, 25 °C
# PeAAO [6] = biological target: T2, PeAAO; design: method as in Ferreira et al. (2023); details: alcohol substrate 4-methoxybenzyl alcohol, 50 mM phosphate, pH 6.0, 25 °C, ref Ferreira et al. (2023); cited from earlier work
# BaAAO [7] = biological target: T1, BaAAO; design: method as in Ferreira et al. (2023); details: alcohol substrate 4-methoxybenzyl alcohol, 50 mM phosphate, pH 6.0, 25 °C, ref Ferreira et al. (2023); cited from earlier work
# PeAAO [8] = biological target: T2, PeAAO; details: pH 6.0, 12 °C, cited from earlier work
# PeAAO [9] = biological target: T2, PeAAO; assay: Stopped-flow oxidative half-reaction (flavin reoxidation by O2 or BQ); details: PeAAO
# PeAAO [10] = biological target: T2, PeAAO
# Description: (§4) Data were globally fitted to an equation describing a one-step process.
# BaAAO [11] = biological target: T1, BaAAO
# Description: as §4
# PeAAO [12] = biological target: T2, PeAAO; design: method as in Carro et al. (2018a); details: pH 6.0, 12 °C, ref Carro et al. (2018a), cited from earlier work
# BaAAO [13] = biological target: T1, BaAAO; assay: biochemical
# Description: as §4
# [14] = substrate: COc1ccc(CO)cc1Cl; assay: Steady-state bi-substrate kinetics of alcohol oxidation; type: biochemical, Bjerkandera adusta; details: other: BaAAO, 50 mM phosphate, pH 6.0, 25 °C
# Experimental: as §1, §2
# [15] = substrate: O=C1C=CC(=O)C=C1; assay: as above; type: biochemical, Bjerkandera adusta; details: other: BaAAO, alcohol substrate 3-Cl-4-methoxybenzyl alcohol, 50 mM phosphate, pH 6.0, 25 °C
# Experimental: as §1, §2
# [16] = substrate: COc1ccc(CO)cc1Cl; assay: as above; type: biochemical, Pleurotus eryngii; details: other: PeAAO, 50 mM phosphate, pH 6.0, 25 °C
# Experimental: as §1, §2
# [17] = substrate: O=C1C=CC(=O)C=C1; assay: as above; type: biochemical, Pleurotus eryngii; details: other: PeAAO, alcohol substrate 3-Cl-4-methoxybenzyl alcohol, 50 mM phosphate, pH 6.0, 25 °C
# Experimental: as §1, §2
# [18] = anaerobic, 50 mM sodium phosphate, pH 6.0, 25 °C
# [19] = BaAAO, alcohol substrate 3-Cl-4-methoxybenzyl alcohol, 50 mM phosphate, pH 6.0, 25 °C
# [20] = alcohol substrate 3-Cl-4-methoxybenzyl alcohol, 50 mM phosphate, pH 6.0, 25 °C
# [21] = 50 mM sodium phosphate, pH 6.0, 12 °C
molecule,measurement,setting,value
"COc1ccc(CO)cc1Cl [3-Cl-4-methoxybenzyl, 3-chloro-4-methoxybenzyl alcohol]",turnover of BaAAO higher than PeAAO,BaAAO [1]; O2 as electron acceptor,2 fold
same,k cat lower than for the other substrate (4-methoxybenzyl alcohol),PeAAO [2],4 fold
same,k red,BaAAO [3],121 ± 11 s⁻¹
same,k red/K d(alcohol),BaAAO [3],404000 ± 127000 M⁻¹ s⁻¹
same,Kd,BaAAO [3]; read-out: K d(alcohol),300 ± 91 µM
same,k red,PeAAO [4]; [18],96 ± 3 s⁻¹
same,k red/K d(alcohol),PeAAO [4]; [18],"4,486 ± 725 s^−1mM^-1"
same,Kd,"PeAAO [4]; anaerobic, 50 mM sodium phosphate, pH 6.0, 25 °C, read-out: K d(alcohol)",21 ± 3 µM
same,k red higher than k cat,PeAAO [4]; turnover with BQ,4 fold
same,k red higher than k cat,PeAAO [4]; turnover with O2,2 fold
same,reduced form of the enzyme during turnover,BaAAO [5],≤ 60%
O=O [O2],K m(acceptor),BaAAO [1]; [19],225 ± 8 µM
same,k cat/K m(acceptor),BaAAO [1]; [19],312000 ± 12000 M⁻¹ s⁻¹
same,K m(acceptor),PeAAO [2]; [20],67 ± 2 µM
same,k cat/K m(acceptor),PeAAO [2]; [20],647000 ± 22000 M⁻¹ s⁻¹
same,K m(acceptor),PeAAO [6],176 ± 1 µM
same,k cat/K m(acceptor),PeAAO [6],"1,139 ± 35 s^−1mM^−1"
same,K m(acceptor),BaAAO [7],134 ± 5 µM
same,k cat/K m(acceptor),BaAAO [7],549000 ± 23000 M⁻¹ s⁻¹
same,k ox(O2),"PeAAO [8]; PeAAO reduced by 3-Cl-4-methoxybenzyl alcohol, ref Ferreira et al. (2015)",790 ± 20 ^b s^−1mM^−1
same,k ox(O2),"PeAAO [8]; PeAAO reduced by 4-methoxybenzyl alcohol, ref Carro et al. (2018a)",770 ± 40 ^a s^−1mM^−1
same,"reverse rate constant (k rev), y-axis intercept of reoxidation",PeAAO [9],17 s⁻¹
COc1ccc(C(=O)O)cc1Cl [3-Cl-4-methoxybenzoic acid],k on,PeAAO [10]; [21],37000 ± 1000 M⁻¹ s⁻¹
same,k off,"PeAAO [10]; 50 mM sodium phosphate, pH 6.0, 12 °C, nd = not detected",no dissociation
same,k off,BaAAO [11]; [21],13 ± 1 s⁻¹
same,k on,BaAAO [11]; [21],47000 ± 2000 M⁻¹ s⁻¹
same,Kd,"BaAAO [11]; read-out: K d(acid), K d = k off/k on, pH 6.0, 12 °C",276 ± 38 µM
"COc1ccc(C(=O)O)cc1 [4-Methoxybenzoic acid, 4-methoxybenzoic acid]",k on slower than that of 3-Cl-4-methoxybenzoic acid,PeAAO [10],approximately 2 fold
same,k on slower than that of 3-Cl-4-methoxybenzoic acid,BaAAO [11],~5 fold
same,k off,PeAAO [12]; 50 mM sodium phosphate,3 ± 1 s⁻¹
same,k on,PeAAO [12]; 50 mM sodium phosphate,18000 ± 1000 M⁻¹ s⁻¹
same,Kd,"PeAAO [12]; K d = k off/k on, read-out: K d(acid)",149 ± 10 µM
same,Kd,BaAAO [13],1810 ± 197 µM
same,k off,BaAAO [13]; pH 6,18 ± 2 s⁻¹
same,k on,BaAAO [13]; pH 6,10000 ± 1000 M⁻¹ s⁻¹
B1,Km,[14]; BQ as e− acceptor (anaerobic),26 ± 4 µM
same,kcat,[14]; BQ as e− acceptor (anaerobic),23 ± 1 s⁻¹
same,kcat/Km,[14]; BQ as e− acceptor (anaerobic),910000 ± 146000 M⁻¹ s⁻¹
same,Km,[14]; O2 as e− acceptor,94 ± 4 µM
same,kcat,[14]; O2 as e− acceptor,70 ± 1 s⁻¹
same,kcat/Km,[14]; O2 as e− acceptor,747000 ± 32000 M⁻¹ s⁻¹
same,Km,[15],66 ± 12 µM
B2,Km,[16]; BQ as e− acceptor (anaerobic),4 ± 1 µM
same,kcat,[16]; BQ as e− acceptor (anaerobic),21 ± 1 s⁻¹
same,kcat/Km,[16]; BQ as e− acceptor (anaerobic),"5,874 ± 481 s^−1mM^−1"
same,Km,[16]; O2 as e− acceptor,11 ± 1 µM
same,kcat,[16]; O2 as e− acceptor,43 ± 1 s⁻¹
same,kcat/Km,[16]; O2 as e− acceptor,"3,806 ± 122 s^−1mM^−1"
same,Km,[17],29 ± 2 µM
